{"source": "patent US20090209550A1", "about": "“SUBSTITUTED TRIAZOLOPYRIDINES” (AUSPEX PHARMACEUTICALS, INC., priority 2008, published 2009)", "experiment": "In vitro liver microsomal stability assay", "format": "in vitro ADME", "conditions": "'+' marks the bin; human liver microsomes 1 mg per mL protein, NADPH-generating system, 1 μM, 37° C.; compared to non-isotopically enriched drug", "description": "Liver microsomal stability assays are conducted at 1 mg per mL liver microsome protein with an NADPH-generating system in 2% NaHCO3 (2.2 mM NADPH, 25.6 mM glucose 6-phosphate, 6 units per mL glucose 6-phosphate dehydrogenase and 3.3 mM MgCl2). Test compounds are prepared as solutions in 20% acetonitrile-water and added to the assay mixture (final assay concentration 1 μM) and incubated at 37° C. Final concentration of acetonitrile in the assay should be <1%. Aliquots (50 μL) are taken out at times 0, 0.25, […], and 1 hours, and diluted with ice cold acetonitrile (200 μL) to stop the reactions. Samples are centrifuged at 12,000 RPM for 10 min to precipitate proteins. Supernatants are transferred to micro centrifuge tubes and stored for LC/MS/MS analysis of the degradation half-life of the test compounds.", "note": "Structures can show the parent of a compound that is named as a salt.", "data": [{"smiles": "[2H]C([2H])(CCn1nc2ccccn2c1=O)N1CCN(c2cccc(Cl)c2)CC1", "note": "[Example 2, 2-(3-(4-(3-Chlorophenyl)piperazin-1-yl)propyl-3,3-d2)-[1,2,4]triazolo[4,3-a]pyridin-3(2H)one hydrochloride]", "values": [{"measurement": "% increase of HLM degradation half-life, >150%", "value": "+ (>150%)"}]}, {"smiles": "[2H]C([2H])(CCN1CCN(c2cccc(Cl)c2)CC1)n1nc2ccccn2c1=O", "note": "[Example 3, 2-(3-(4-(3-Chlorophenyl)piperazin-1-yl)propyl-1,1-d2)-[1,2,4]triazolo[4,3-a]pyridin-3(2H)one hydrochloride]", "values": [{"measurement": "% increase of HLM degradation half-life, 0%-50%", "value": "+ (0%-50%)"}]}, {"smiles": "[2H]C([2H])(CC([2H])([2H])n1nc2ccccn2c1=O)N1CCN(c2cccc(Cl)c2)CC1", "note": "[Example 4, 2-(3-(4-(3-Chlorophenyl)piperazin-1-yl)propyl-1,1,3,3-d4)-[1,2,4]triazolo[4,3-a]pyridin-3(2H)one hydrochloride]", "values": [{"measurement": "% increase of HLM degradation half-life, 0%-50%", "value": "+ (0%-50%)"}]}, {"smiles": "O=c1n(CCCN2CCN(c3cccc(Cl)c3)CC2)nc2ccccn12", "note": "[Example 1, 2-(3-(4-(3-Chlorophenyl)piperazin-1-yl)propyl)-[1,2,4]triazolo[4,3-a]pyridin-3(2H)one, reference compound]", "values": [{"measurement": "% increase of HLM degradation half-life, 50%-150%", "value": "+ (50%-150%)"}]}, {"smiles": "[2H]C([2H])(N1CCN(c2cccc(Cl)c2)CC1)C([2H])([2H])C([2H])([2H])n1nc2ccccn2c1=O", "note": "[Example 5, 2-(3-(4-(3-Chlorophenyl)piperazin-1-yl)propyl-1,1,2,2,3,3-d6)-[1,2,4]triazolo[4,3-a]pyridin-3(2H)one hydrochloride]", "values": [{"measurement": "% increase of HLM degradation half-life, 0%-50%", "value": "+ (0%-50%)"}]}]}
